Measurements from the NIST ThermoML archive (doi:10.1021/je0601457).

Experiment: xn = mol fraction of the nth substance listed

c1cnccn1 [pyrazine] + O=C=O
Fluid (supercritical or subcritical phases), Linear displacement technique
Details | mass density [kg/m3]
294.25 K, 5340 kPa, x1 = 0.308 | 1054
294.25 K, 9480 kPa, x1 = 0.308 | 1070
294.25 K, 12170 kPa, x1 = 0.308 | 1078
295.55 K, 6450 kPa, x1 = 0.019 | 854
295.55 K, 7000 kPa, x1 = 0.019 | 877
295.55 K, 9070 kPa, x1 = 0.019 | 915
295.65 K, 5520 kPa, x1 = 0.146 | 887
295.65 K, 5970 kPa, x1 = 0.074 | 926
295.65 K, 6100 kPa, x1 = 0.074 | 929
295.65 K, 6310 kPa, x1 = 0.074 | 941
295.65 K, 6380 kPa, x1 = 0.116 | 815
295.65 K, 6520 kPa, x1 = 0.146 | 898
295.65 K, 8210 kPa, x1 = 0.116 | 833
295.65 K, 12790 kPa, x1 = 0.146 | 926
296.25 K, 6140 kPa, x1 = 0.09 | 873
296.25 K, 9830 kPa, x1 = 0.09 | 923
298.25 K, 6590 kPa, x1 = 0.015 | 863
298.25 K, 7520 kPa, x1 = 0.015 | 892
298.25 K, 8790 kPa, x1 = 0.015 | 918
299.45 K, 7760 kPa, x1 = 0.224 | 921
300.75 K, 6520 kPa, x1 = 0.177 | 894
300.75 K, 7070 kPa, x1 = 0.177 | 898
300.75 K, 10790 kPa, x1 = 0.177 | 917
303.65 K, 7070 kPa, x1 = 0.074 | 903
303.65 K, 8720 kPa, x1 = 0.074 | 924
303.75 K, 7480 kPa, x1 = 0.015 | 828
303.75 K, 9410 kPa, x1 = 0.015 | 898
303.75 K, 10240 kPa, x1 = 0.015 | 917
303.75 K, 12450 kPa, x1 = 0.015 | 956
304.15 K, 7690 kPa, x1 = 0.019 | 791
304.15 K, 8380 kPa, x1 = 0.019 | 826
304.15 K, 9210 kPa, x1 = 0.019 | 849
304.15 K, 10520 kPa, x1 = 0.019 | 876
304.15 K, 11900 kPa, x1 = 0.019 | 898
304.25 K, 7340 kPa, x1 = 0.116 | 798
304.25 K, 7550 kPa, x1 = 0.116 | 801
304.25 K, 9550 kPa, x1 = 0.116 | 816
304.95 K, 7280 kPa, x1 = 0.308 | 1036
304.95 K, 9690 kPa, x1 = 0.308 | 1041
304.95 K, 13620 kPa, x1 = 0.308 | 1052
305.75 K, 6930 kPa, x1 = 0.146 | 839
305.75 K, 7280 kPa, x1 = 0.146 | 863
305.75 K, 11690 kPa, x1 = 0.146 | 886
305.85 K, 7340 kPa, x1 = 0.09 | 858
305.85 K, 10170 kPa, x1 = 0.09 | 884
306.35 K, 6520 kPa, x1 = 0.397 | 1049
306.35 K, 9690 kPa, x1 = 0.397 | 1061
306.35 K, 13690 kPa, x1 = 0.397 | 1070
308.25 K, 7550 kPa, x1 = 0.074 | 882
308.25 K, 9480 kPa, x1 = 0.074 | 906
308.65 K, 6030 kPa, x1 = 0.495 | 999
308.65 K, 7000 kPa, x1 = 0.495 | 1001
308.65 K, 9240 kPa, x1 = 0.495 | 1008
309.45 K, 7070 kPa, x1 = 0.177 | 872
309.45 K, 7620 kPa, x1 = 0.177 | 874
309.45 K, 9760 kPa, x1 = 0.177 | 884
312.05 K, 9480 kPa, x1 = 0.224 | 899
312.05 K, 9760 kPa, x1 = 0.015 | 778
312.05 K, 9930 kPa, x1 = 0.015 | 787
312.05 K, 10410 kPa, x1 = 0.015 | 812
312.05 K, 11100 kPa, x1 = 0.015 | 835
312.05 K, 16790 kPa, x1 = 0.224 | 919
312.75 K, 7760 kPa, x1 = 0.308 | 1023
312.75 K, 11690 kPa, x1 = 0.308 | 1033
312.75 K, 14830 kPa, x1 = 0.308 | 1043
313.55 K, 8450 kPa, x1 = 0.116 | 773
313.55 K, 8790 kPa, x1 = 0.116 | 778
313.55 K, 10860 kPa, x1 = 0.116 | 791
313.65 K, 9030 kPa, x1 = 0.019 | 687
313.65 K, 9140 kPa, x1 = 0.019 | 712
313.65 K, 9830 kPa, x1 = 0.019 | 761
313.65 K, 10450 kPa, x1 = 0.019 | 792
313.65 K, 10860 kPa, x1 = 0.019 | 809
313.65 K, 12520 kPa, x1 = 0.019 | 850
314.85 K, 8240 kPa, x1 = 0.146 | 833
314.85 K, 8860 kPa, x1 = 0.146 | 839
314.85 K, 14240 kPa, x1 = 0.146 | 869
314.95 K, 7830 kPa, x1 = 0.397 | 1040
314.95 K, 11280 kPa, x1 = 0.397 | 1048
314.95 K, 15140 kPa, x1 = 0.397 | 1060
315.85 K, 8660 kPa, x1 = 0.09 | 813
318.95 K, 9210 kPa, x1 = 0.015 | 512
318.95 K, 9280 kPa, x1 = 0.015 | 527
318.95 K, 9480 kPa, x1 = 0.015 | 571
320.15 K, 9140 kPa, x1 = 0.09 | 806
320.15 K, 10790 kPa, x1 = 0.09 | 830
320.95 K, 9660 kPa, x1 = 0.224 | 877
320.95 K, 13000 kPa, x1 = 0.224 | 889
321.55 K, 9280 kPa, x1 = 0.177 | 839
321.55 K, 10520 kPa, x1 = 0.177 | 847
321.55 K, 12520 kPa, x1 = 0.177 | 857

linear displacement
Details | mass density [kg/m3]
294.25 K, Liquid, x1 = 0.308 | 1048
295.55 K, Liquid, x1 = 0.019 | 842
295.65 K, Liquid, x1 = 0.074 | 922
295.65 K, Liquid, x1 = 0.116 | 809
295.65 K, Liquid, x1 = 0.146 | 887
296.25 K, Liquid, x1 = 0.09 | 864
298.25 K, Liquid, x1 = 0.015 | 857
299.45 K, Liquid, x1 = 0.224 | 910
300.75 K, Liquid, x1 = 0.177 | 889
303.65 K, Liquid, x1 = 0.074 | 900
303.75 K, Liquid, x1 = 0.015 | 802
304.15 K, Liquid, x1 = 0.019 | 776
304.25 K, Liquid, x1 = 0.116 | 795
304.95 K, Liquid, x1 = 0.308 | 1028
305.75 K, Liquid, x1 = 0.146 | 860
305.85 K, Liquid, x1 = 0.09 | 854
306.35 K, Liquid, x1 = 0.397 | 1042
308.25 K, Liquid, x1 = 0.074 | 878
308.65 K, Liquid, x1 = 0.495 | 992
309.45 K, Liquid, x1 = 0.177 | 870
312.05 K, Liquid, x1 = 0.015 | 656
312.05 K, Liquid, x1 = 0.224 | 887
312.75 K, Liquid, x1 = 0.308 | 1019
313.55 K, Liquid, x1 = 0.116 | 771
313.65 K, Liquid, x1 = 0.019 | 679
314.85 K, Liquid, x1 = 0.146 | 830
314.95 K, Liquid, x1 = 0.397 | 1037
315.85 K, Liquid, x1 = 0.09 | 810
318.95 K, Gas, x1 = 0.015 | 452
320.15 K, Liquid, x1 = 0.09 | 799
320.95 K, Liquid, x1 = 0.224 | 870
